Columns and labels:
[1] = tested on: HEK293 cells expressing APP 695 wt; assay: Aβ production in HEK293 cells expressing APP 695 wt, compared with I-7T binding to membranes of the same cell line; assay type: cell-based
Description: The concentration of Compound (I-7) leading to half-maximal inhibition (IC50) of proteolytic activity leading to Aβ production in HEK293 cells expressing APP 695 wt is similar to the concentration leading to half-maximal inhibition (IC50) of Compound (I-7T) binding to membranes derived from the same cell line. […] Also using a compound of Formula (I), we have discovered a macromolecule containing a binding site of action for compounds of Formula (I) critical to the processing of APP and the production of Aβ.
bind specifically to a binding site on a macromolecule or a complex of macromolecules involved in APP processing to produce reduction of Aβ peptide production. For example, the concentration of Compound (I-7) leading to half-maximal inhibition (IC50) of Aβ production in HEK293 cells expressing APP 695 wt is similar to the concentration leading to half-maximal inhibition (IC50) of Compound (I-7T) binding to membranes derived from the same cell line.

[2] = tested on: membrane binding site of Example 7; assay: Radioligand Competition Binding Assay (RCB Assay)
presenilin 1 = molecular target: T1, presenilin 1 (Homo sapiens, UniProt P49768); assay: immunoprecipitation of cross-linked polypeptides with antibodies to presenilin 1; assay type: binding; details: THP-1 membranes, Example 43T 30 nM plus competing compound
T1 construct: endogenous in cells; host or cells: THP-1 cell membranes
Protocol: The membranes were collected by centrifugation. The membranes were extracted with 50 mM Tris, pH 7.5 containing 100 mM KCl, 2 mM EDTA, 2% CHAPS and 1 complete protease inhibitor tablet per 25 ml buffer (COMPLETE™, Boehringer Mannheim; product number 1697 498)) for 1 hour at 4° C. The detergent soluble fraction was recovered by centrifugation (40,000 g, 30 min, 4° C.). The membrane extract was diluted one half with water. 500 ul of the membrane extract were pre-incubated with 10 ul of normal mouse IgG and 50 ul anti-mouse IgG Sepharose (Sigma) for 1 hour at 4° C. The supernatant was recovered by centrifugation. Subsequently, 10 ug of preimmune IgG (Sigma) or 10 ug of a monoclonal antibody to presenilin 1 was added in the presence of 50 ul anti-mouse IgG Sepharose. Examples of commercially available antibodies to presenilin 1 are Chemicon International: rat anti-human Presenilin 1 monoclonal antibody; product number MAB 1563; or Santa Cruz Biotechnology: goat anti Presenilin 1; product number SC-1244; or Santa Cruz Biotechnology: goat anti Presenilin 1; product number SC-1245. […] Radioactivity bound to the Sepharose beads was dissociated by boiling in SDS sample buffer (4×) containing 50 mM dithiothreitol. […]

Molecule	IC50 of Aβ production compared with IC50 of Compound (I-7T) binding to membranes from the same cell line [1]	apparent Ki: RCB Assay conducted with Example 7T versus Example 11T [2]	also measured
CCC[C@H](C(N)=O)[C@@H](CC(C)C)C(=O)N[C@H]1CCCCN(Cc2cccc(Oc3ccccc3)c2)C1=O [Example 7, (2R,3S) N1-[(3S)-Hexahydro-1-(3-phenoxybenzyl)-2-oxo-1H-azepin-3-yl]-2-(2-methylpropyl)-3-(propyl)-butanediamide]	similar	statistically significant correlation	
CCC[C@H](C(N)=O)[C@@H](CC(C)C)C(=O)N[C@H]1CCCCN(Cc2cccc(C(=O)c3ccccc3)c2)C1=O [Example 11]		statistically significant correlation	IC50 in β APPA Assay versus RCB Assay with Example 7T as radiolabeled standard [2]: statistically significant correlation of IC50 values; cross-linking to the membrane binding site ([2]; THP-1 membranes, photolysis at 365 nm): cross-linked to the membrane binding site of Example 7
CC(NC(=O)Cc1cc(F)cc(F)c1)C(=O)NC1N=C(c2ccccc2)c2ccccc2N(C)C1=O (stereo not shown) [Example 98, reference compound]		statistically significant correlation	competition of cross-linking / immunoprecipitation of labeled bands (FIG. 2) (presenilin 1): not in the presence of Example 98
CC(C)C[C@H](CC(N)=O)C(=O)N[C@H]1CCCCN(Cc2cccc(Oc3ccccc3)c2)C1=O [Example 99]		statistically significant correlation	
Tritiated (2S,3R) N1-[1,3-Dihydro-1-methyl-2-oxo-5-(phenyl)-2H-1,4-benzodiazepin-3-yl]-2-(2-methylpropyl)-3-(n-propyl)-butanediamide [Example 43T]	correlation holds		equivalency to Example 7T as radioactive tracer in the RCB Assay [2]: can be used instead of Example 7T
